Laboratory results published in ChEMBL document CHEMBL1201862, “PubChem BioAssay data set” (2004).
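These data come from cells grown in 96-well plates and exposed to compound for 48 hours at five concentrations. GI50 = concentration required for 50% inhibition of growth.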 The source made the active and inactive calls. Cut-off read from the data, not from the text of the source: active = GI50 up to about 1.1 µM and inactive = higher.

Assays:
Assay in all cases: NCI-60 cell line screen, 48 h
SF-539 = test system: SF-539
UACC-257 = test system: UACC-257
SR = test system: SR
SF-268 = test system: SF-268
IGROV-1 = test system: IGROV-1
MCF7 = test system: MCF7
T47D = test system: T47D
PC-3 = test system: PC-3
786-0 = test system: 786-0
M14 = test system: M14
KM12 = test system: KM12
ACHN = test system: ACHN
CCRF-CEM = test system: CCRF-CEM
NCI/ADR-RES = test system: NCI/ADR-RES
SW-620 = test system: SW-620
UO-31 = test system: UO-31
DU-145 = test system: DU-145
CAKI-1 = test system: CAKI-1
HT-29 = test system: HT-29
MDA-MB-231 = test system: MDA-MB-231
EKVX = test system: EKVX
HCC 2998 = test system: HCC 2998
HCT-116 = test system: HCT-116
UACC-62 = test system: UACC-62
NCI-H23 = test system: NCI-H23
SK-MEL-5 = test system: SK-MEL-5
MDA-N = test system: MDA-N
OVCAR-8 = test system: OVCAR-8
A498 = test system: A498
NCI-H460 = test system: NCI-H460
SK-MEL-28 = test system: SK-MEL-28
HOP-62 = test system: HOP-62
LOX IMVI = test system: LOX IMVI
Hs-578T = test system: Hs-578T
SF-295 = test system: SF-295
OVCAR-3 = test system: OVCAR-3
U-251 = test system: U-251
HCT-15 = test system: HCT-15
SN12C = test system: SN12C
Malme-3M = test system: Malme-3M
COLO 205 = test system: COLO 205
SNB-19 = test system: SNB-19
RXF 393 = test system: RXF 393
BT-549 = test system: BT-549
TK-10 = test system: TK-10
OVCAR-5 = test system: OVCAR-5
A549 = test system: A549
NCI-H226 = test system: NCI-H226
K562 = test system: K562
SK-OV-3 = test system: SK-OV-3
SNB-75 = test system: SNB-75
HL-60 = test system: HL-60
MOLT-4 = test system: MOLT-4
OVCAR-4 = test system: OVCAR-4
NCI-H522 = test system: NCI-H522
SK-MEL-2 = test system: SK-MEL-2
HOP-92 = test system: HOP-92
RPMI-8226 = test system: RPMI-8226
MDA-MB-435 = test system: MDA-MB-435

In the case of `N#CS/C(Cl)=C(/C(Cl)=C(Cl)Cl)[N+](=O)[O-]`, the GI50 (SF-539) is reported as 32.9 µM (inactive), the GI50 (UACC-257) is reported as 36.6 µM (inactive) and the GI50 (SR) is reported as 24.7 µM (inactive). For the same compound, the GI50 (SF-268) was 38 µM (inactive), the GI50 (IGROV-1) was 37.5 µM (inactive) and the GI50 (MCF7) was 29.9 µM (inactive). For the same compound, the GI50 (T47D) was 37.2 µM (inactive), the GI50 (PC-3) was 35.2 µM (inactive) and the GI50 (786-0) was 28.2 µM (inactive). For the same compound, the GI50 (M14) was 34.4 µM (inactive), the GI50 (KM12) was 47.6 µM (inactive) and the GI50 (ACHN) was 31.3 µM (inactive). The GI50 (CCRF-CEM) was 33 µM (inactive), the GI50 (NCI/ADR-RES) was 28.4 µM (inactive) and the GI50 (SW-620) was 29.7 µM (inactive). For the same compound, the GI50 (UO-31) was 24.5 µM (inactive), the GI50 (DU-145) was > 100 µM (inactive) and the GI50 (CAKI-1) was 35.4 µM (inactive). For the same compound, the GI50 (HT-29) was 34.5 µM (inactive), the GI50 (MDA-MB-231) was 52.5 µM (inactive) and the GI50 (EKVX) was > 100 µM (inactive). The GI50 (HCC 2998) was 39.8 µM (inactive), the GI50 (HCT-116) was 25.4 µM (inactive) and the GI50 (UACC-62) was 47.2 µM (inactive). The GI50 (NCI-H23) was 33.3 µM (inactive), the GI50 (SK-MEL-5) was 49.7 µM (inactive) and the GI50 (MDA-N) was 34.6 µM (inactive). The GI50 (OVCAR-8) was 34.4 µM (inactive), the GI50 (A498) was 79.6 µM (inactive) and the GI50 (NCI-H460) was 42.8 µM (inactive). The GI50 (SK-MEL-28) was 29.4 µM (inactive), the GI50 (HOP-62) was > 100 µM (inactive) and the GI50 (LOX IMVI) was 19.6 µM (inactive). For the same compound, the GI50 (Hs-578T) was 16.6 µM (inactive), the GI50 (SF-295) was 53.2 µM (inactive) and the GI50 (OVCAR-3) was 21.9 µM (inactive). The GI50 (U-251) was 35.8 µM (inactive), the GI50 (HCT-15) was 20.9 µM and the GI50 (SN12C) was 36.9 µM (inactive). For the same compound, the GI50 (Malme-3M) was 20.7 µM (inactive), the GI50 (COLO 205) was 30.5 µM (inactive) and the GI50 (SNB-19) was 1.89 µM (inactive). For the same compound, the GI50 (RXF 393) was 47.3 µM (inactive), the GI50 (BT-549) was 36.8 µM (inactive) and the GI50 (TK-10) was > 100 µM (inactive). For the same compound, the GI50 (OVCAR-5) was > 100 µM (inactive), the GI50 (A549) was > 100 µM (inactive) and the GI50 (NCI-H226) was > 100 µM (inactive). The GI50 (K562) was 40.7 µM (inactive), the GI50 (SK-OV-3) was > 100 µM (inactive) and the GI50 (SNB-75) was 32.3 µM (inactive). For the same compound, the GI50 (HL-60) was 29.1 µM (inactive), the GI50 (MOLT-4) was 36.3 µM (inactive) and the GI50 (OVCAR-4) was 48.3 µM (inactive).
With `CC1(C)OC(=O)C(Cc2ccccc2)(Cc2ccccc2)C(=O)O1` the GI50 (SF-539) was > 100 µM (inactive), the GI50 (UACC-257) was > 100 µM (inactive) and the GI50 (SR) was > 100 µM (inactive). The GI50 (SF-268) was > 100 µM (inactive), the GI50 (IGROV-1) was > 100 µM (inactive) and the GI50 (MCF7) was > 100 µM (inactive). The GI50 (T47D) was > 100 µM (inactive), the GI50 (PC-3) was > 100 µM (inactive) and the GI50 (786-0) was > 100 µM (inactive). For the same compound, the GI50 (M14) was > 100 µM (inactive), the GI50 (KM12) was > 100 µM (inactive) and the GI50 (NCI-H522) was > 100 µM (inactive). The GI50 (ACHN) was > 100 µM (inactive), the GI50 (CCRF-CEM) was > 100 µM (inactive) and the GI50 (NCI/ADR-RES) was > 100 µM (inactive). For the same compound, the GI50 (SW-620) was > 100 µM (inactive), the GI50 (UO-31) was > 100 µM (inactive) and the GI50 (DU-145) was > 100 µM (inactive). For the same compound, the GI50 (CAKI-1) was > 100 µM (inactive), the GI50 (HT-29) was > 100 µM (inactive) and the GI50 (MDA-MB-231) was > 100 µM (inactive). For the same compound, the GI50 (EKVX) was > 100 µM (inactive), the GI50 (HCC 2998) was > 100 µM (inactive) and the GI50 (HCT-116) was > 100 µM (inactive). For the same compound, the GI50 (UACC-62) was > 100 µM (inactive), the GI50 (NCI-H23) was > 100 µM (inactive) and the GI50 (SK-MEL-5) was > 100 µM (inactive). The GI50 (MDA-N) was > 100 µM (inactive), the GI50 (OVCAR-8) was > 100 µM (inactive) and the GI50 (NCI-H460) was > 100 µM (inactive). The GI50 (SK-MEL-28) was > 100 µM (inactive), the GI50 (HOP-62) was > 100 µM (inactive) and the GI50 (LOX IMVI) was > 100 µM (inactive). For the same compound, the GI50 (Hs-578T) was > 100 µM (inactive), the GI50 (SF-295) was > 100 µM (inactive) and the GI50 (U-251) was > 100 µM (inactive). The GI50 (HCT-15) was > 100 µM, the GI50 (SN12C) was > 100 µM (inactive) and the GI50 (Malme-3M) was > 100 µM (inactive). The GI50 (SK-MEL-2) was > 100 µM (inactive), the GI50 (COLO 205) was > 100 µM (inactive) and the GI50 (SNB-19) was > 10 µM (inactive). The GI50 (RXF 393) was 3.58 µM (inactive), the GI50 (BT-549) was > 100 µM (inactive) and the GI50 (TK-10) was > 100 µM (inactive). For the same compound, the GI50 (OVCAR-5) was > 100 µM (inactive), the GI50 (A549) was > 100 µM (inactive) and the GI50 (NCI-H226) was > 100 µM (inactive). For the same compound, the GI50 (K562) was > 100 µM (inactive), the GI50 (SK-OV-3) was > 100 µM (inactive) and the GI50 (SNB-75) was > 100 µM (inactive). The GI50 (HL-60) was > 100 µM (inactive), the GI50 (MOLT-4) was > 100 µM (inactive) and the GI50 (OVCAR-4) was > 100 µM (inactive).
With `O=C1c2ccccc2C(=O)N1CC(CN1C(=O)c2ccccc2C1=O)(C(=O)OCc1ccccc1)C(=O)OCc1ccccc1` the GI50 (SR) was > 100 µM (inactive), the GI50 (IGROV-1) was > 100 µM (inactive) and the GI50 (T47D) was > 100 µM (inactive). The GI50 (PC-3) was > 100 µM (inactive), the GI50 (M14) was > 100 µM (inactive) and the GI50 (KM12) was > 100 µM (inactive). For the same compound, the GI50 (NCI-H522) was > 100 µM (inactive), the GI50 (CCRF-CEM) was 6.11 µM (inactive) and the GI50 (NCI/ADR-RES) was > 100 µM (inactive). The GI50 (UO-31) was > 100 µM (inactive), the GI50 (DU-145) was > 100 µM (inactive) and the GI50 (CAKI-1) was > 100 µM (inactive). For the same compound, the GI50 (HT-29) was > 100 µM (inactive), the GI50 (MDA-MB-231) was > 100 µM (inactive) and the GI50 (HCC 2998) was > 100 µM (inactive). For the same compound, the GI50 (HCT-116) was > 100 µM (inactive), the GI50 (UACC-62) was > 100 µM (inactive) and the GI50 (NCI-H23) was > 100 µM (inactive). The GI50 (SK-MEL-5) was > 100 µM (inactive), the GI50 (MDA-N) was > 100 µM (inactive) and the GI50 (OVCAR-8) was > 100 µM (inactive). The GI50 (A498) was > 100 µM (inactive), the GI50 (HOP-92) was > 100 µM (inactive) and the GI50 (NCI-H460) was > 100 µM (inactive). For the same compound, the GI50 (SK-MEL-28) was > 100 µM (inactive), the GI50 (HOP-62) was > 100 µM (inactive) and the GI50 (Hs-578T) was > 100 µM (inactive). For the same compound, the GI50 (SF-295) was > 100 µM (inactive), the GI50 (OVCAR-3) was > 100 µM (inactive) and the GI50 (U-251) was > 100 µM (inactive). The GI50 (RPMI-8226) was > 100 µM (inactive), the GI50 (HCT-15) was > 100 µM and the GI50 (SN12C) was > 100 µM (inactive). For the same compound, the GI50 (Malme-3M) was > 100 µM (inactive), the GI50 (SK-MEL-2) was > 100 µM (inactive) and the GI50 (COLO 205) was > 100 µM (inactive). The GI50 (MDA-MB-435) was > 100 µM (inactive), the GI50 (SNB-19) was > 100 µM (inactive) and the GI50 (RXF 393) was 14.4 µM (inactive). The GI50 (BT-549) was > 100 µM (inactive), the GI50 (OVCAR-5) was > 100 µM (inactive) and the GI50 (NCI-H226) was > 100 µM (inactive). The GI50 (SK-OV-3) was > 100 µM (inactive), the GI50 (SNB-75) was > 100 µM (inactive) and the GI50 (HL-60) was > 100 µM (inactive). For the same compound, the GI50 (MOLT-4) was 7.36 µM (inactive).
